Where only a bound is given, the exact number is not on record here.

The conditions of data set [1]: literature report; cited from earlier work.
Data set [2] in a line: Determination of the solubility in water. It counts as physicochemical. To be noted: adjusted to pH 5-6 with sodium acetate solution, final dimethyl sulfoxide ≦1% if not a water-soluble salt. How it is done:
EXAMPLE B Determination of the Solubility in Water […] If the measured substance is not in the form of a water-soluble salt, it was dissolved in the minimum amount of dimethyl sulfoxide and then diluted with water (final dimethyl sulfoxide concentration ≦1%), after which the pH was again adjusted.

As for `NC(=O)c1cccc(N)c1` [3-aminobenzamide], in data set [1], the “effect in a model of circulatory failure” value was “protective effects”. With `COc1ccc(-c2nc3cccc(C(N)=O)c3[nH]2)cc1` [NU 1076], in data set [2], the solubility in water is on record as below 0.01%.

The values are drawn from patent US6737421B1, “Cyclo-alkyl substituted benzimidazoles and their use as PARP inhibitors” (Abbott GmbH & Co. KG, priority 1999, dated 2004).
